{"source": "patent US5519115A", "about": "“Reverse antimicrobial peptides” (priority 1993, dated 1996)", "key": {"Cercospora sp.": {"system": "Cercospora sp.", "assay": "Antifungal bioassay (MCIC, spore germination)", "assay_type": "cell-based", "details": "10^6 spores/test; mean after 24 hours of treatment", "description": "(§1) Fungi were grown on an appropriate medium, in this case a potato dextrose agar plate, for several weeks. At the end of that period, the plate was flooded with about 5 mL of sterile distilled water to harvest spores. The spore concentration was determined by use of a hemocytometer and the spore suspension was stored in a sterile tube at 4° C. until it was needed. Then 82 microliters of potato dextrose broth and 3 microliters of spore suspension (ranging from 10^5 to 10^7 spores total) were added to 12 wells in a 96 well microtiter plate for each AMPPP to be tested, with 1-4 replicate sets of 12 wells prepared for each AMPPP within a single experiment. In several instances, more than one spore concentration was used in order to determine the efficacy of certain AMPPPs as a function of the number of target spores. Stock solutions of each AMPPP were prepared at a concentration of 1 mg/mL and 0-15 microliters of each peptide stock solution were added to a single well in the microtiter plate followed by a sufficient volume of water to bring the total well volume to 100 microliters. […] Typical peptide volumes assayed were 0, 1, 2, 3, 4, 5, 6, 7, 8, 9, 10, and 15 microliters, which corresponds to a final peptide concentration in the range of 0-150 micrograms/mL. The microtiter plates were sealed with parafilm and incubated at room temperature for 48 hours. The fungal growth was observed after 24 and 48 hours by microscope using a 4× and/or a 10× objective lens. The amount of spore germination and fungal growth was recorded as a quantitative measurement at each observation time using a system of pluses and minuses: [-] meant no germination having occurred, [+] meant swollen spores with an extended germ tube, [++] meant the beginnings of mycelial growth with the overall appearance of a loose lattice, and [+++] meant a dense mycelial growth with the overall appearance of a thick opaque meshwork. The MCIC value for each AMPPP tested was then recorded, where the MCIC value is defined as the lowest peptide concentration at which no spore germination occurred (rating=[-]). […]"}, "Trichoderma reesei": {"system": "Trichoderma reesei", "assay": "Antifungal bioassay (MCIC, spore germination)", "assay_type": "cell-based", "details": "10^6 spores/test; mean after 24 hours of treatment", "description": "as §1"}, "[1]": {"system": "Helminthosporium carbonum", "assay": "Antifungal bioassay (MCIC, spore germination)", "assay_type": "cell-based", "details": "10^6 spores/test; mean after 24 hours of treatment", "description": "as §1"}, "isolated chloroplasts": {"system": "isolated chloroplasts", "assay": "Oxygen evolution bioassay, phytotoxicity (isolated chloroplasts)", "assay_type": "cell-based, Spinach (Spinacia oleracea L. var. Melody)", "description": "The following procedure for the preparation of chloroplasts to use in an oxygen electrode is similar to that of Gupta et al., \"Development and Use of Chlorotetracycline Fluorescence as a Measurement Assay of Chloroplast Envelope-Bound Mg^2+, \"Plant Physiol. 89, (1989) 753-761. Spinach (Spinacia oleracea L. var. `Melody`) was grown in 1:1 peat/vermiculite potting mix in a growth chamber with a 10 hour light period. The chamber temperature was maintained at 21° C. (day) and 16° C. (night) during the growth period. All plants were used for chloroplast isolation after 6-8 weeks of growth.\nIn order to obtain an enriched chloroplast fraction, about 12 g of deribbed spinach leaves were thoroughly washed and surface dried. The leaves were then cut into small pieces, each about 1/2 inch square, and were placed in a small blender jar containing 50 mL of chilled homogenization medium (0.33M sorbitol, 50 mM Hepes-NaOH, pH 6.8, 2mM Na2 EDTA, 1 mM MnCl2, 1 mM MgCl2). The tissue was blended twice for three second intervals on high speed in a blender. The resulting homogenate was filtered through four layers of cheesecloth and two layers of miracloth (Behring Diagnostics, La Jolla, Calif.) into two chilled 30 mL glass centrifuge tubes. The filtered solution was centrifuged for 1.0 minute at 750 g (2,200 RPM) in a JS 13.1 swinging bucket rotor in a Beckman J2-21M centrifuge (Beckman Instruments, Inc., Somerset, N.J.). The supernatant was then decanted and the pellet was gently resuspended by swirling at 0° C. About 15 mL of homogenization medium was added to each tube of chloroplasts before the chloroplasts were layered onto a 40% Percoll gradient (6 mL Percoll, 9 mL homogenization medium, and 0.03 g bovine serum albumin) in a 30 mL glass centrifuge tube. These tubes were centrifuged for 4.0 minutes at 2500 g (4000 RPM) in a JS 13.1 swinging bucket rotor in a Beckman J2-21M centrifuge. The supernatant was removed and the resulting pellet was resuspended in a small amount of homogenization medium (about 500 microliters).\nPlastid concentration was generally expressed on a chlorophyll basis. Chlorophyll was determined by the method of Arnon \"Copper Enzymes in Isolated Chloroplasts, Polyphenol Oxidase in Beta Vulgaris,\" Plant Physiol. 24, (1949) 1-15. About 50 microliters of chloroplast stock suspension was added to 10 mL of 80% acetone and this solution was incubated 5.0 minutes in the dark and then centrifuged for 5.0 minutes at 500 g (1630 RPM) in a Beckman GP centrifuge. The absorbance of the acetone-chloroplast solution was monitored at 645 nm, at 663 nm and at 730 nm. The chlorophyll concentration was then calculated as 10× [(absorbance at 645 nm×20.2)+(absorbance at 663 nm×8.02)--background at 730 nm]. This gave the amount of chlorophyll in micrograms for the original 50 microliters of chloroplasts. The concentration of chloroplasts was then adjusted with homogenization medium so that 50 microliters of suspension contained 26 micrograms of chlorophyll. These chloroplasts were only active for 11/2 to 2 hours and were therefore used immediately.\nAn oxygen electrode (Hansatech Instruments Ltd., Kings Lynn, Norfolk, England) was used to measure oxygen evolution from isolated chloroplasts. For a detailed discussion of the method see, D. Walker, \"The Use of the Oxygen Electrode and Fluorescence Probes in Simple Measurements of Photosynthesis,\" supra. A saturated KCl solution was placed in the electrode well and a one-inch square of rolling paper or lens paper was placed in to the electrode well so that it soaked up KCl and formed an ionic bridge. A one-inch square of teflon membrane was then prepared, being careful not to touch its surface, and was placed over the soaked paper. Using the membrane applicator, an O ring was placed over the head of the electrode, thereby securing paper and membrane across the electrode. The CB-1D control box was turned on and the system was allowed to warm up approximately one hour before calibration. […]"}}, "data": [{"substance": "Met-Mag 1 dimer (head-to-tail) [Peptide No. 9]", "values": [{"measurement": "MCIC Values With: Cercospora sp.", "setting": "Cercospora sp.", "value": "25+/-10 micrograms per mL"}, {"measurement": "MCIC Values With: Trichoderma reesei", "setting": "Trichoderma reesei", "value": "24+/-12 micrograms per mL"}, {"measurement": "MCIC Values With: Helminthosporium carbonum", "setting": "[1]", "value": "63+/-29 micrograms per mL"}, {"measurement": "inhibition of oxygen evolution", "setting": "isolated chloroplasts", "value": 100, "unit": "%"}]}]}
